As a reminder, the IC50 is the concentration at which inhibition is half-maximal.

Structures are written as SMILES. Calls of active or inactive are those of the source. No cut-off for these calls is given here. Where only a bound is given, the exact number is not on record here.

This note sets out measurements from ChEMBL document CHEMBL3822445, “Histone demethylating agents as potential S-adenosyl-l-methionine-competitors” (Medchemcomm, 2016).

Assay [1] is described as follows: Antiproliferative activity against human Ovarian cancer LA#83 cells assessed as cell survival at 20 uM after 72 hrs by MTT assay relative to control. Type of assay: functional. To be noted: read-out: Survival. In general terms: Formazan colour is commonly taken as a measure of viable cells.
The test system of assay [2] is MCF7. Nature of the assay: Induction of apoptosis in human MCF7 cells assessed as viable cells at 15 uM after 72 hrs by AnnexinV-FITC staining based flow cytometry (reference value: 60.5 +/- 6 %). It counts as functional. To be noted: MCF7, 72 h, read-out: Activity.
For assay [3], the system named is MCF7. Nature of the assay: Inhibition of DNA methylation in human MCF7 cells assessed as decrease in 5-methylcytosine level by ELISA. Type of assay: cell-based.
Assay [4] concerns MCF7. Nature of the assay: Antiproliferative activity against human MCF7 cells after 48 to 72 hrs by MTT assay. It counts as functional, cell-based.
Assay [5] concerns MCF7. Nature of the assay: Induction of apoptosis in human MCF7 cells assessed as early apoptotic cells at 15 uM after 72 hrs by AnnexinV-FITC staining based flow cytometry (reference value: 20.1 +/- 7.3 %). Type of assay: functional. For orientation: A flow cytometer gives signals particle by particle.
The subject of assay [6] is MCF7. Nature of the assay: Cell cycle arrest in human MCF7 cells assessed as accumulation at S phase at 15 uM after 24 to 72 hrs by flow cytometry relative to control. It counts as functional.
A further assay relates to MSTO-211H. Nature of the assay: Antiproliferative activity against human MSTO-211H cells after 48 to 72 hrs by MTT assay. Type of assay: functional, cell-based.
Assay [7] has as its system MCF7. Nature of the assay: Induction of apoptosis in human MCF7 cells assessed as viable cells at 15 uM after 48 hrs by AnnexinV-FITC staining based flow cytometry (reference value: 74.4 +/- 9.1 %). Type of assay: functional. To be noted: MCF7, 48 h, read-out: Activity.
Assay [8] relates to MCF7. Nature of the assay: Induction of apoptosis in human MCF7 cells assessed as necrotic cells at 15 uM after 48 hrs by AnnexinV-FITC staining based flow cytometry (reference value: 10.2 +/- 1.9 %). Type of assay: functional.
Assay [9] in a line: Antiproliferative activity against human H460 cells after 48 to 72 hrs by MTT assay. Type of assay: functional, cell-based. To be noted: NCI-H460.
Assay [10] has as its system MCF7. Nature of the assay: Induction of apoptosis in human MCF7 cells assessed as late apoptotic cells at 15 uM after 72 hrs by AnnexinV-FITC staining based flow cytometry (reference value: 11.8 +/- 2.2 %). Type of assay: functional.
Assay [11] relates to MCF7. Nature of the assay: Inhibition of DNA methylation in human MCF7 cells assessed as decrease in methylation of RARbeta DNA by qPCR method. It counts as cell-based.
Assay [12] concerns MCF7. Nature of the assay: Induction of apoptosis in human MCF7 cells assessed as late apoptotic cells at 15 uM after 48 hrs by AnnexinV-FITC staining based flow cytometry (reference value: 7.6 +/- 5.9 %). It counts as functional.
Assay [13] deals with MCF7. Nature of the assay: Inhibition of DNA methylation in human MCF7 cells assessed as reduction in H3K9me3 levels at 15 uM after 48 hrs by Western blot analysis. It counts as cell-based. A general note: A western blot detects proteins with antibodies after separation by electrophoresis.
Assay [14] deals with MCF7. Nature of the assay: Inhibition of DNA methylation in human MCF7 cells assessed as reduction in H3K27me3 levels at 15 uM after 48 hrs by Western blot analysis. Type of assay: cell-based.
The target of assay [15] is T1, Histone-lysine N-methyltransferase EHMT2 (Homo sapiens) (UniProt Q96KQ7).
T1 sequence (whole entry): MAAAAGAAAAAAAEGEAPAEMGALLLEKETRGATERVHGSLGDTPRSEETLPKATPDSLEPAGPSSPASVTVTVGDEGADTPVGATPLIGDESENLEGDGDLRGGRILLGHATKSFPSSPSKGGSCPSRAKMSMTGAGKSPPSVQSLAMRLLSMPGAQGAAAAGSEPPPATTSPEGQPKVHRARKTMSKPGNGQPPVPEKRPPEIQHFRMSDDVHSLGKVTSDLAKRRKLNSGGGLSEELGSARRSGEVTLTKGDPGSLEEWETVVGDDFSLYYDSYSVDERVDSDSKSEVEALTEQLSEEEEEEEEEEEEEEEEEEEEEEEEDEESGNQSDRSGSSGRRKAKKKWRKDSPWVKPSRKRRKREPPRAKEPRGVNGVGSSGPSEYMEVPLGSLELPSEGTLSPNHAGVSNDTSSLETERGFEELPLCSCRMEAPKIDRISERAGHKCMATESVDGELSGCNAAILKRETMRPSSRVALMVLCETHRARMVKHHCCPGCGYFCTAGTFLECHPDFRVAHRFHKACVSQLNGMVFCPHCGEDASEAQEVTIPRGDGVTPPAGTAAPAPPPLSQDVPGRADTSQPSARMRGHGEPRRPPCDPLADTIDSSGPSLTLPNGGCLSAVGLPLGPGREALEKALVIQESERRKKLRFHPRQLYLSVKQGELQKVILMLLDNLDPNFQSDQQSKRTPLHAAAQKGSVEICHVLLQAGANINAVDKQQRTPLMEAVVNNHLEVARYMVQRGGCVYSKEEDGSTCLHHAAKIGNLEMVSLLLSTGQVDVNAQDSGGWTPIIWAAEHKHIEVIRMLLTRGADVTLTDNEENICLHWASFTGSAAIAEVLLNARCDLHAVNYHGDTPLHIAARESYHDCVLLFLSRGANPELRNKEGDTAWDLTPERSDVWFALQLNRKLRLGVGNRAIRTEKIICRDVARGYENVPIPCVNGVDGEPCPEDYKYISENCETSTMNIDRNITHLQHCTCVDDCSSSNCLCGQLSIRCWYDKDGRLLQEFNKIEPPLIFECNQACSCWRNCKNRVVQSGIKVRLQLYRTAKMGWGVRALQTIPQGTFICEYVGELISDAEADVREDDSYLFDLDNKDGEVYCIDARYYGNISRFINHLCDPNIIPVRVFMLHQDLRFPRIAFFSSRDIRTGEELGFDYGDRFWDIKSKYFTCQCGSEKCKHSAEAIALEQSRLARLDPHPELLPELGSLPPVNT
Nature of the assay: Inhibition of G9a in human MCF7 nuclear extracts assessed as reduction in H3K9 levels at 15 uM after 48 hrs. Type of assay: cell-based.

A short description of assay [16]: Antiproliferative activity against human Ovarian cancer LA#110 cells assessed as cell survival at 20 uM after 72 hrs by MTT assay relative to control. It counts as functional. To be noted: read-out: Survival.
Assay [17] deals with MCF7. Nature of the assay: Induction of apoptosis in human MCF7 cells assessed as necrotic cells at 15 uM after 72 hrs by AnnexinV-FITC staining based flow cytometry (reference value: 7.6 +/- 1 %). Type of assay: functional.
Assay [18] can be described thus: Antiproliferative activity against human Ovarian cancer DC#110 cells assessed as cell survival at 20 uM after 72 hrs by MTT assay relative to control. It counts as functional. To be noted: read-out: Survival.
Assay [19] relates to MCF7. Nature of the assay: Induction of apoptosis in human MCF7 cells assessed as early apoptotic cells at 15 uM after 48 hrs by AnnexinV-FITC staining based flow cytometry (reference value: 7.8 +/- 5.3 %). It counts as functional.
Assay [20] in a line: Antiproliferative activity against human Ovarian cancer DC#83 cells assessed as cell survival at 20 uM after 72 hrs by MTT assay relative to control. Type of assay: functional. To be noted: read-out: Survival.

In the case of `CCCCN1C(=O)[C@@H]2Cc3c([nH]c4ccccc34)CN2C1=O`, the viability at 20 µM was determined as 81.9% in [1], 66.7% in [16], 80.8% in [18] and 93.3% in [20]. Moreover, the viability at 15 µM was determined as 47.7% in the assay on MCF7 [2] and 69% in the assay on MCF7 [7]. Besides, the inhibition result (with MCF7 [3]; in [15]) was “Active” each time. Also, the IC50 in the assay with MCF7 [4] is 37.5 µM; with MSTO-211H, over 20 µM; in [9], over 20 µM. For the same compound, the Activity was 27.9% with MCF7 [5]; 10.8% with MCF7 [6]; 4.2% in the assay with MCF7 [8]; 17.7% in the assay on MCF7 [10]; 13.8% in the assay with MCF7 [12]; 6.7% in the assay with MCF7 [17]. The Activity in the assay with MCF7 [19] worked out at 13%. For the same compound, the inhibition entry with MCF7 [11], with MCF7 [13] and in the assay with MCF7 [14] was “inactive” each time.
